# How the values were obtained:
# nitroreductase (NTR) = target: T1, nitroreductase (NTR) (Escherichia coli, UniProt P38489); test: Nitroreductase gene reporter assay (adenoviral NF-κB NTR reporter, HeLa cells); format: cell-based; conditions: control sample cells containing the reporter, no agonist, vs mock transduced cells
# T1 construct: expressed in transfected cells
# Procedure: A reporter construct containing the NF-κB response element upstream of the NTR gene was constructed in pDC511 (Admax™). The reporter was packaged with AdS genomic DNA in helper cells, HEK293, and replication incompetent Adenovirus rescued.
# HeLa cells were subcultured for twenty-four hours prior to viral transduction and incubated overnight at 37° C. in a humidified atmosphere of 5% CO2 in Dulbecco's Modified Eagles medium containing 10% foetal calf serum +2 mM L-glutamine. After the overnight incubation, the cells were detached from each flask with trypsin, pooled to produce a suspension of cells and the cell concentration determined. The HeLa cell suspension was mixed with virus at a predetermined multiplicity of infection (MOI) in a sufficient minimal volume of complete medium to cover the base of a tissue culture flask; typically 15 ml for 10^6 cells in a T75 cm^2 Costar flask. The cell/virus suspension was returned to the incubator and left overnight at 37° C. in a humidified atmosphere of 5% CO2. […] The cells were detached with trypsin and pooled to produce a suspension of transduced cells; the concentration of the cell suspension was determined and adjusted to 5.0×10^4 cells per ml. […] The fluorescence signal was monitored over time by means of a Tecan “Ultra” fluorimeter. All substrates were measured under identical conditions to avoid instrument artefacts. […]
# nitroreductase = target: T2, nitroreductase (Escherichia coli, UniProt P38489); test: Live cell NTR assays, signal retention after fixation of cells; format: cell-based; conditions: live cell NTR assay, cells fixed
# T2 construct: expressed in transfected cells
# Description: Further examples of the utility of nitro-substituted squaraine dyes (Compounds (2), (3) and (4)) as nitroreductase substrates are shown in live cell NTR assays, FIG. 5.
# NTR enzyme = NTR enzyme (Escherichia coli, UniProt P38489); test: Shift in absorption maximum after action of NTR upon a substrate; format: biochemical
# Procedure: Compound (8) in DMSO (1 mMol) (4 μl ) was diluted into PBS buffer (0.01M) (1.76 ml). The UV/Vis spectrum of the solution was measured. The substrate has an absorbance maximum at 682 nm AU=0.22. To the solution was added NADH (0.01M in PBS) (200 μl) and NTR enzyme (446 ng/ml, 37 μl) the mixture was leave to stand at room temperature for 30 mins. After this time, the absorbance spectrum was re-measured. A new absorbance maximum at 621 nm, AU=0.17 is observed.
# NTR enzyme, sequence (P38489 whole entry): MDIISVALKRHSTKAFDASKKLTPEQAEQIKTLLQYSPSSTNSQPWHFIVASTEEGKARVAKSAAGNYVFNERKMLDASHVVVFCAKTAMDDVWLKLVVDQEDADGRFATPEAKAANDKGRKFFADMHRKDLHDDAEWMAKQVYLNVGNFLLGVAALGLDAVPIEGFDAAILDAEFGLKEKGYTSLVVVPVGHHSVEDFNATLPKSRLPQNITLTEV
# T1 sequence (P38489 whole entry): as above
# T2 sequence (P38489 whole entry): as above
smiles,measurement,setting,value
"CN1/C(=C\C2=C([O-])C(=C\C3=[N+](Cc4cc([N+](=O)[O-])cc([N+](=O)[O-])c4)c4ccccc4C3(C)C)/C2=O)C(C)(C)c2ccccc21 [Compound (1), 2-(1-methyl-3,3-dimethyl-2-indolinylidenemethyl)-4-(1-(3,5-dinitrobenzyl)-3,3-dimethyl-2-indolinylidenemethyl)cyclobutenediylium-1,3-diolate]",detection of basal transcriptional activity,nitroreductase (NTR),not sensitive enough to detect this low level activity
"CC[n+]1c(/C=C2/C(=O)C(/C=C3\N(CCOCCOC)c4ccccc4C3(C)C)=C2[O-])sc2cc([N+](=O)[O-])ccc21 [Compound (4), 2-(3-ethyl-6-nitro-2-benzothiazolinylidenemethyl)-4-(1-(2-(2-methoxyethoxy)ethyl)-3,3-dimethyl-2-indolinylidenemethyl)cyclobutenediylium-1,3-diolate]",signal lost post-fixation,nitroreductase,~50%
"C[n+]1c(C=C2C(=O)C(C=C3N(CCCCS(=O)(=O)O)c4ccc(S(=O)(=O)O)cc4C3(C)C)=C2[O-])ccc2cc([N+](=O)[O-])ccc21 [Compound (8), 2-((3,3-dimethyl-5-sulfo-1-(4-sulfobutyl)-1,3-dihydro-2H-indol-2-ylidene)methyl)-4-((1-methyl-6-nitroquinolinium-2-yl)methylene)-3-oxocyclobut-1-en-1-olate]",new absorbance maximum after action of NTR,"NTR enzyme; NADH and NTR enzyme added, room temperature, 30 mins",621 nm
same,absorbance at new maximum after action of NTR,"NTR enzyme; at 621 nm, NADH and NTR enzyme added, room temperature, 30 mins",0.17 AU
same,absorbance maximum of substrate,"NTR enzyme; before NTR, PBS buffer 0.01M",682 nm
same,absorbance at maximum of substrate,"NTR enzyme; before NTR, at 682 nm, PBS buffer",0.22 AU

# From patent US20080317674A1, “Method and Reagent for Measuring Nitroreductase Enzyme Activity” (priority 2004, published 2008)
